# Reference: patent US10918645B2 (LIFEARC, priority 2016, dated 2021)
# Key:
# Format in all cases: biochemical
# Details in all cases: 1 μM inhibitor concentration
# MKK1 = MKK1 (Homo sapiens (Human), UniProt Q02750); experiment: MKK1 kinase selectivity assay
# Method: After incubating at room temperature for 30 min, 5 μl from the first reaction is pipetted into 20 μl of the second reaction mix containing (final concentration) 25 mM Tris pH 7.5, 0.1 mM EGTA, 0.1 mM Na3VO4, 0.66 mg/ml myelin basic protein (MBP), 10 mM magnesium acetate and 0.05 mM [33P-g-ATP] (500-1000 cpm/pmole) and incubated for 30 min at room temperature. Assays are stopped by addition of 5 μl of 0.5 M (3%) orthophosphoric acid and then harvested onto P81 Unifilter plates with a wash buffer of 50 mM orthophosphoric acid.
# JNK2 = JNK2 (Homo sapiens (Human), UniProt P45984); experiment: JNK2 kinase selectivity assay
# Sequence of JNK2 (P45984 whole entry, species assumed): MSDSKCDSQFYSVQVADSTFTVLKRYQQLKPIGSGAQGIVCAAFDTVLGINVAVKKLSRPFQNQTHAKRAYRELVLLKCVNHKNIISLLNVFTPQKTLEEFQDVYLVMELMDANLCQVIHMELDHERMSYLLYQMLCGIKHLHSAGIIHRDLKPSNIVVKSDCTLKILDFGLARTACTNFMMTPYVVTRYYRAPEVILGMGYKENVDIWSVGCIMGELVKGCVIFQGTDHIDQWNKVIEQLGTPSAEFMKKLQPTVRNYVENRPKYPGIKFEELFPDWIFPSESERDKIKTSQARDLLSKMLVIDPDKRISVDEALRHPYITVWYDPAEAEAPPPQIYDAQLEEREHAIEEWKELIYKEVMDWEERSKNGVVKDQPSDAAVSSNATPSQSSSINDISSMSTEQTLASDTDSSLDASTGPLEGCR
# Method: JNK2 1(5-20 mU diluted in 50 mM Tris (pH 7.5), 0.1 mM EGTA, 1 mg/ml BSA, 0.1% b-mercaptoethanol) is assayed against ATF2 (activating transcription factor in a final volume of 25.5 μl in 50 mM Tris pH 7.5, 0.1 mM EGTA, 0.1% b-Mercaptoethanol, ATF2 (3 μM), 10 mM magnesium acetate and 0.02 mM [33P-g-ATP] (500-1000 cpm/pmole) and incubated for 30 min at room temperature. Assays are stopped by addition of 5 μl of 0.5 M (3%) orthophosphoric acid and then harvested onto P81 Unifilter plates with a wash buffer of 50 mM orthophosphoric acid.
# PKCa = PKCa (Homo sapiens (Human), UniProt P17252); experiment: PKCa kinase selectivity assay
# Method: PKCa (5-20 mU diluted in 20 mM Hepes pH 7.4, 0.03% Triton X-100) is assayed against Histone H1 in the presence of PtdSerine and DAG (0.1 mg/ml. and 10 μg/ml) and 0.1 mM CaCl2. The assay is carried out in a final volume of 25.5 μl containing 20 mM Hepes pH 7.4, 0.03% Triton X-100, 0.1 mg/ml Histone H1, 10 mM magnesium acetate and 0.02 mM[33P-g-ATP] (50-1000 cpm/pmole) and incubated for 30 min at room temperature. Assays are stopped by addition of 5 μl of 0.5 M (3%) orthophosphoric acid and then harvested onto P81 Unifilter plates with a wash buffer of 50 mM orthophosphoric acid.
# PtdSer/DAG preparation:—PtdSer stock=10 mg/ml in MeOH/Chloroform (1:2). Dry down required amount. Resuspend in appropriate volume of 10 mM Hepes pH 7.4. Vortex and briefly sonicate. (2×10-15 seconds at 10-15 seconds apart). DAG stock=10 mg/ml in MeOH/chloroform (1:2). Dry down required amount. Add sonicated PtdSer solution. Vortex and sonicate.
# CAMK1 = CAMK1 (Homo sapiens (Human), UniProt Q14012); experiment: CAMK1 kinase selectivity assay
# Method: (§1) 5-20 mU of CAMK-1 (diluted in 50 mM Tris (pH 7.5), 0.1 mM EGTA, 1 mg/ml BSA, 0.1%, b-Mercaptoethanol) is assayed against substrate peptide ([…]) in a final volume of 25.5 μl containing 50 mM Tris (pH 7.5), 0.1 mM EGTA, 0.5 mM CaCl2, 0.3 μM calmodulin, 0.1%, b-Mercaptoethanol, 300 μM substrate peptide, 10 mM magnesium acetate and 0.05 mM [33P-g-ATP](500-1000 cpm/pmole) and incubated for 30 mins at room temperature. Assays are stopped by addition of 511 of 0.5M (3%) orthophosphoric acid. Assays are harvested onto P81 Unifilter plates using a wash buffer of 50 mM orthophosphoric acid.
# SmMLCK = SmMLCK (Homo sapiens (Human), UniProt Q15746); experiment: SmMLCK kinase selectivity assay
# Method: as §1, with “of smMLCK” for “of CAMK-1”, “mM Hepes” for “mM Tris”, “EGTA, 5” for “EGTA, 0.5”, “CaCl2, […] Calmodulin,” for “CaCl2, 0.3 μM calmodulin, 0.1%, b-Mercaptoethanol,”, “of 5 μl” for “of 511”
# AuroraA = AuroraA (Homo sapiens (Human), UniProt O14965); experiment: AuroraA kinase selectivity assay
# Sequence of AuroraA (O14965 whole entry): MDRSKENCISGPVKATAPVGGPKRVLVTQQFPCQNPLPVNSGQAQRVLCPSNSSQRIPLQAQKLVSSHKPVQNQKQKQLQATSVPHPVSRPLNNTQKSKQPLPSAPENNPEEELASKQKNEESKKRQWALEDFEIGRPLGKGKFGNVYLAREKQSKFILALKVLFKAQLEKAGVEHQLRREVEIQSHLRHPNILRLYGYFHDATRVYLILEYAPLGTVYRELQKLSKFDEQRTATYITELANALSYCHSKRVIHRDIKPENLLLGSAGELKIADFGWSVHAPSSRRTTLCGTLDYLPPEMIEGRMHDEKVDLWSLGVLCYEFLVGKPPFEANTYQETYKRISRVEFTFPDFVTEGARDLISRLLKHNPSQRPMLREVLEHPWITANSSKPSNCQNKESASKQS
# Method: Aurora A (5-20 mU diluted in 50 mM Tris pH 7.5, 0.1 mM EGTA, 0.1% β-mercaptoethanol, 1 mg/ml BSA) is assayed against […] in a final volume of […] containing 50 mM Tris pH 7.5, 0.1 mM EGTA, 0.3 mM […] 10 mM magnesium acetate and 0.005 mM [33P-γ-ATP](50-1000 cpm/pmole) and incubated for 30 min at room temperature. Assays are stopped by addition of 5 μl of 0.5 M (3%) orthophosphoric acid and then harvested onto P81 Unifilter plates with a wash buffer of 50 mM orthophosphoric acid.
# SRPK1 = SRPK1 (Homo sapiens (Human), UniProt Q96SB4); experiment: SRPK1 kinase selectivity assay
# Sequence of SRPK1 (Q96SB4 whole entry, species assumed): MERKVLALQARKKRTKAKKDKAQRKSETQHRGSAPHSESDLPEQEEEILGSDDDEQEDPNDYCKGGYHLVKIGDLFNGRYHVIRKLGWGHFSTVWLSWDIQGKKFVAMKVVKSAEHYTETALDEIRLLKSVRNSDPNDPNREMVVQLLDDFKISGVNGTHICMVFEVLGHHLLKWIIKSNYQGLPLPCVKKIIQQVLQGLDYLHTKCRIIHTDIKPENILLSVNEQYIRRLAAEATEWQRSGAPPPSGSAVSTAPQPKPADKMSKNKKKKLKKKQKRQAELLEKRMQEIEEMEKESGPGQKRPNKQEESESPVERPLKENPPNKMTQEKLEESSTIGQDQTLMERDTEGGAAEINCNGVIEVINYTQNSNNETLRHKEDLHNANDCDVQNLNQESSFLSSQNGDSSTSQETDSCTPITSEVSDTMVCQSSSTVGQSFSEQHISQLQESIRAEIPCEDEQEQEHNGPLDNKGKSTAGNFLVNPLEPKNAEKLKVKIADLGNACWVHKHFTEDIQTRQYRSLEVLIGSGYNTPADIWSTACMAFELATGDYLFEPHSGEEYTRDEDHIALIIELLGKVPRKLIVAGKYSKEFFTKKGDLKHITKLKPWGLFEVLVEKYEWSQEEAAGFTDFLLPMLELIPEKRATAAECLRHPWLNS
# Method: as §1, with “SRPK1” for “CAMK-1”, “[…]” for “25.5”, “EGTA,” for “EGTA, 0.5 mM CaCl2, 0.3 μM calmodulin,”, “5 μl” for “511”
# TAK1 = TAK1 (Homo sapiens (Human), UniProt O43318); experiment: TAK1 kinase selectivity assay
# Sequence of TAK1 (O43318 1-303): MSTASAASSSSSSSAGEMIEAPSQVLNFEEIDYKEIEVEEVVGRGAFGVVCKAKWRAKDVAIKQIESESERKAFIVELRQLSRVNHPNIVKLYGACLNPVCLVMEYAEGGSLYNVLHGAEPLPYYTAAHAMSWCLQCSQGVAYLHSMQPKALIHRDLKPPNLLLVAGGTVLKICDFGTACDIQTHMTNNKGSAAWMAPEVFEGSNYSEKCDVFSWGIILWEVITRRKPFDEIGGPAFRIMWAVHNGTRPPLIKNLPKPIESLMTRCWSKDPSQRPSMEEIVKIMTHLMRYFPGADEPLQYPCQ
# Method: TAK1 (5-20 mU diluted in 50 mM Tris pH 7.5, 0.1 mM EGTA, 1 mg/ml BSA) is assayed against a substrate peptide ([…]) in a final volume of 25.5 μl containing 50 mM Tris pH 7.5, 0.1 mM EGTA, 0.1% β-Mercaptoethanol, 300 μM substrate peptide, 10 mM magnesium acetate, 0.5 mM MnCl and 0.005 mM [33P-γ-ATP](50-1000 cpm/pmole) and incubated for 30 min at room temperature. Assays are stopped by addition of 5 μl of 0.5 M (3%) orthophosphoric acid and then harvested onto P81 Unifilter plates with a wash buffer of 50 mM orthophosphoric acid.
# Sequence of MKK1 (Q02750 whole entry, species assumed): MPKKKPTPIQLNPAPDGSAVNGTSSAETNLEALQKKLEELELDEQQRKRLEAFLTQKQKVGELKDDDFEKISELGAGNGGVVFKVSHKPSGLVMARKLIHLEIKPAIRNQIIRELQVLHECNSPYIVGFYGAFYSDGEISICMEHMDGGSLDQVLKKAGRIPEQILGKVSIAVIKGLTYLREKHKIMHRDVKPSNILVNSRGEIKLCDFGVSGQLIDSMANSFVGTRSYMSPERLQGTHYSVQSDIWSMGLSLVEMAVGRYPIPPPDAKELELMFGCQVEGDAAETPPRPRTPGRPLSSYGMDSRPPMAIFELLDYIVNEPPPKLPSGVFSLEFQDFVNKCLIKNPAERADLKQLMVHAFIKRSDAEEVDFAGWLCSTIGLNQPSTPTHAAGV
Compound,percentage inhibition of MKK1 (MKK1) [percentage],percentage inhibition of JNK2 (JNK2) [percentage],percentage inhibition of PKCa (PKCa) [percentage],percentage inhibition of CAMK1 (CAMK1) [percentage],percentage inhibition of SmMLCK (SmMLCK) [percentage],percentage inhibition of AuroraA (AuroraA) [percentage],percentage inhibition of SRPK1 (SRPK1) [percentage],percentage inhibition of TAK1 (TAK1) [percentage]
"c1cc2[nH]nc3c2c(n1)N(C1CCC1)CCC3 [Example 22, 6-cyclobutyl-6,7,8,9-tetrahydro-2H-1,2,5,6-tetraazabenzo[cd]azulene]",15,1,0,0,16,0,0,64
"c1cc2[nH]nc3c2c(n1)N(C1CCCC1)CCC3 [Example 23, 6-cyclopentyl-6,7,8,9-tetrahydro-2H-1,2,5,6-tetraazabenzo[cd]azulene]",0,0,0,0,15,0,0,49
"c1cc2[nH]nc3c2c(n1)N(C1CCOCC1)CCC3 [Example 29, 6-(tetrahydro-2H-pyran-4-yl)-6,7,8,9-tetrahydro-2H-1,2,5,6-tetraazabenzo[cd]azulene]",21,0,11,0,11,0,0,65
CN1CCC(N2Cc3ccccc3-c3n[nH]c4ccnc2c34)CC1 [Example 55],65,41,0,25,16,9,0,64
CC(C)n1ncc2c1CN(C1CCN(C)CC1)c1nccc3[nH]nc-2c13 [Example 68],31,37,2,45,9,13,0,36
